Source: patent US7939541B2, “Intermediates and a process employing the intermediates for the preparation of (3-trifluoromethylsulfonyl)-N-[4-methyl-3-(4-pyridin-3yl-pyrimidin-2ylamino)-phenyl]-benzamide” (Natco Pharma Limited, priority 2004, dated 2011)

Columns and labels:
[1] = test system: Baf3 murine leukemia cells Wt; assay: Blast cell count in nude mice implanted with Baf3 Wt cells; assay type: in vivo; conditions: Baf3Wt; Imatinib 10 mg/kg, AN019 20 mg/kg, AN024 20 mg/kg, oral gavage or ip from day 15; day 42
Description: (§1) Blood smears were obtained via the tail vein or via the femoral vein every 6th day and blast cells counted and graphically represented.
(§2) Abdominal swelling and decrease in activity was monitored daily, blood smear taken via the tail vein or the femoral vein every 6th day and H&E stained as per standard protocols. 42 days after implantation, mice were sacrificed and spleens harvested.
(§3) Blood from tail vein or the femoral vein was taken every 6th day from Baf3 cell implanted mice until day 42.
(§4) Nude mice were intraperitoneally implanted with Baf3 mutant cells (wt, T315I, M351T or E255K). […] Blood was drawn from the femoral vein or tail vein every 6th day and blast cell count determined and graphically represented.

[2] = test system: Baf3 murine leukemia cells T315I; assay: Blast cell count in nude mice implanted with Baf3 T315I cells; assay type: in vivo; conditions: Baf3T315I; Imatinib 10 mg/kg, AN019 20 mg/kg, AN024 20 mg/kg, oral gavage or ip from day 15; day 42
Description: as §1, §2, §3, §4

[3] = test system: Baf3 murine leukemia cells M351T; assay: Blast cell count in nude mice implanted with Baf3 M351T cells; assay type: in vivo; conditions: Baf3M351T; Imatinib 10 mg/kg, AN019 20 mg/kg, AN024 20 mg/kg, oral gavage or ip from day 15; day 42
Description: as §1, §2, §3, §4

[4] = test system: Baf3 murine leukemia cells E255K; assay: Blast cell count in nude mice implanted with Baf3 E255K cells; assay type: in vivo; conditions: Baf3E255K (printed E225K); Imatinib 10 mg/kg, AN019 20 mg/kg, AN024 20 mg/kg, oral gavage or ip from day 15; day 42
Description: as §1, §2, §3, §4

[5] = test system: K562luc cells; assay: Determination of drug temporal penetrance (Tp); assay type: in vivo, nude mice; conditions: daily ip from day 15 to day 35, imaged till day 45; AN019 20 mg/kg, AN024 20 mg/kg, Imatinib 10 mg/kg
Method: The temporal penetrance was calculated applying the following equation, […].
P=photon counts at day ‘a’, day ‘ter’, or day ‘b’ where ‘a’ is the day when drug treatment was stopped and ‘ter’ is the day when the experiment was terminated and ‘b’ is the day where P is minimum after day a but before day ‘ter’.
n=number of animals alive when P was measured.
The animals were imaged at 6 day intervals post transplantation. […] Drug treatment was stopped on day 35 and animals were imaged till day 45, and calculated as described in methods.

[6] = test system: ZR71 breast cancer cells; assay: In vitro angiogenic assay, ZR-71 conditioned media on human dermal endothelial cells; assay type: cell-based; conditions: ZR-71 cells, radiation status not specified
Method: (§5) The in vitro angiogenesis of 4910, 5310 and U87 glioma cells and MDAMB231 and ZR71 breast cancer cells in the presence of specified concentrations of compounds were determined as follows, cells (2×10^4/well) were seeded in 8-well chamber slides and were treated with various concentrations of test compounds. After a 24 h incubation period, the conditioned media was removed and added to a 4×10^4 human dermal endothelial cell (monolayer in 8-well chamber slides) and the human dermal endothelial cells were allowed to grow for 72 h. Cells were then fixed in 3.7% formaldehyde and stained with H&E and photographed.

[7] = test system: MDAMB231 breast cancer cells; assay: In vitro angiogenic assay, MDA-MB-231 conditioned media on human dermal endothelial cells; assay type: cell-based; conditions: MDA-MB-231 cells
Method: as §5

[8] = test system: 4910 glioma cells; assay: In vitro angiogenic assay, 4910 conditioned media on human dermal endothelial cells; assay type: cell-based; conditions: 4910 cells
Method: as §5

[9] = test system: AKT, ERK and Pi3k in ZR71 breast cancer cells; assay: Western blot analysis, ZR71; assay type: cell-based; conditions: 24 h
Method: (§6) Western blot analysis of 4910, 5310 and U87 glioma cells and MDAMB231 and ZR71 breast cancer cells in the presence of specified concentrations of compounds were assessed as per standard protocols. Cells were treated with AN019, AN024 or Temozolomide at the specified concentrations. 24 h after treatment, cells were collected and cell lysates extracted. Equal quantities of proteins were fractionated by SDS-PAGE. The fractionated proteins were blotted on to nylon membranes and immunoprobed for AKT, ERK and Pi3k. Breast cancer cell protein isolates were additionally immunoprobed for EGFR, ErbB1, ErbB2 and ErbB3.

[10] = test system: AKT, ERK and Pi3k in 5310 glioma cells; assay: Western blot analysis, 5310; assay type: cell-based; conditions: for PI3k levels: 24 h
Method: as §6

[11] = test system: pAKT and pERK in glioma and breast cancer cells; assay: Western blot analysis of pAKT and pERK, cell line not stated; assay type: cell-based; conditions: for pERK levels: both with and without radiation
Method: as §6

[12] = test system: K562 luciferase expressing cells; assay: Leukemic survival study; assay type: in vivo, nude mice
Description: K562 luciferase expressing cells were implanted intraperitoneally into nude mice; the mice were scanned using the xenogeny IVIS image station after ip injections of luciferin does determine implantations. Drug treatment was started as in previous studies day 15 after implantation. The animals were given treatment till day 42, after which drug treatment was stopped and survival of the animals determined as per the animal care regulations. […] Drug treatment was withdrawn on day 42 post implantation and survival of animals determined.

[13] = test system: K562; assay: ED50 and therapeutic index in leukemic mice (K562); assay type: in vivo; conditions: po, mice
[14] = test system: 4910 human glioma xenograft cells; assay: Glioma radiation studies, intracranial tumours; assay type: in vivo, nude mice
Method: Nude mice were intracranially implanted with 4910 human glioma xenograft cells (1×10^6 cells) intracranially. Ten days after implantation mice were treated with AN019, AN024 or temozolomide with or without radiation (5 Gy/week). The experiment was terminated at day 40 post implantation.

[15] = test system: 5310 glioma cells; assay: In vitro angiogenic assay, 5310 conditioned media on human dermal endothelial cells; assay type: cell-based; conditions: 5310 cells
Method: as §5

Cc1ccc(NC(=O)c2cc(C(F)(F)F)cc(C(F)(F)F)c2)cc1Nc1nccc(-c2cccnc2)n1 [AN019]
blast cell count in blood smears [1]: complete regression of leukemic blast cells
blast cell count in blood smears [2]: significant decrease in blast cell count
blast cell count in blood smears [3]: significant decrease in blast cell count
blast cell count in blood smears [4]: significant decrease in blast cell count
temporal penetrance (Tp) [5]: 2.0
inhibition of angiogenesis [6]: complete inhibition of angiogenesis
inhibition of angiogenesis ([7]; with radiation): slight inhibition
inhibition of angiogenesis ([8]; with radiation): increase in angiogenic inhibition after radiation
AKT levels ([9]; ZR71, after radiation): enhanced after radiation
PI3k levels ([9]; ZR71, with radiation): absent
AKT levels ([9]; ZR71, without radiation): decrease in AKT levels
PI3k levels ([9]; ZR71, without radiation): absent
AKT expression levels ([10]; 5310, 24 h): decrease in AKT expression levels
PI3k levels ([10]; 5310, after radiation treatment): reappeared after radiation treatment
PI3k levels ([10]; 5310, without radiation): almost undetectable
pERK levels [11]: reduced significantly
blast cell count from blood smears after withdrawal of drug treatment ([12]; drug treatment withdrawn on day 42 (FIG. 6C)): showed effectiveness after withdrawal of drug treatment
animals showing no signs of leukemia / complete absence of leukemic symptoms ([12]; of 10 animals, treatment day 15 to day 42, then withdrawn, AN024 read on day 55): 7 animals
mortality (day post implantation) ([12]; treatment day 15 to day 42, then withdrawn): did not show any mortality
ED50 (po) Mice [13]: 11.5 mg/kg
intracranial tumours (size, appearance) ([14]; without radiation): tumours similar to AN024 treated animals
MTD Mice (Maximum Tolerated Dose): 500 mg/kg
LD50 (po) Mice (po): 1133 mg/kg

Cn1nnc2c(C(N)=O)ncn2c1=O [Temozolomide, reference compound]
inhibition of angiogenesis [6]: complete inhibition of angiogenesis
inhibition of angiogenesis ([7]; control condition (without radiation)): only a slight inhibition
inhibition of angiogenesis ([7]; with radiation): increase in inhibition after radiation
inhibition of angiogenesis ([8]; with radiation): significant inhibition of angiogenesis
inhibition of angiogenesis ([8]; without radiation): significant inhibition of angiogenesis
inhibition of angiogenesis ([15]; after radiation treatment): angiogenesis was promoted
inhibition of angiogenesis ([15]; control conditions (without radiation)): inhibition of angiogenesis was seen
pERK levels [11]: did not show any significant change
pAKT levels ([11]; with or without radiation): did not show any significant change
intracranial tumours (size, appearance) ([14]; with radiation (5 Gy/week)): further regression in tumor size
intracranial tumours (size, appearance) ([14]; without radiation): reduction in intracranial tumours
